For the assay, the target named is T1, RACK1A (RECEPTOR FOR ACTIVATED C KINASE 1A) (Arabidopsis thaliana, UniProt O24456).
T1 construct: WD40 seven-bladed beta-propeller scaffold protein
As to the kind of experiment: microscale thermophoresis (MST). The assay is classed as binding.

T1 sequence (O24456 whole entry): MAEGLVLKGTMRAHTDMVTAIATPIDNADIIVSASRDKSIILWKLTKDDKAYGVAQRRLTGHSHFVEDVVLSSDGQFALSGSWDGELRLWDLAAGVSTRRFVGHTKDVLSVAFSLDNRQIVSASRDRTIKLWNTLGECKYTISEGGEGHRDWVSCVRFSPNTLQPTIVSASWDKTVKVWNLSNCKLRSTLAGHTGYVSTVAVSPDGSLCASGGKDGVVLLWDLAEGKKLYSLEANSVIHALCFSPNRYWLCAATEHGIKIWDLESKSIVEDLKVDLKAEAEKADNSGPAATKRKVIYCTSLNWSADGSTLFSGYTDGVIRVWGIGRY

Regarding `COc1cc(OC)cc(C(=O)Nc2ccc3ccccc3c2)c1` [DAPIA], binding was characterised by a dissociation constant (Kd) of 32.8 ± 15.7 µM.

Values taken from paper PMC12318229, “RACK1A positively regulates opening of the apical hook in Arabidopsis thaliana via suppression of its auxin response gradient” (Proceedings of the National Academy of Sciences of the …, 2025).
